The structures appear in SMILES notation.

The target of the test is T1, human AMPK α2β2γ3 (Homo sapiens, UniProt O43741+P54646+Q9UGI9).
T1 construct: expressed in transfected cells; host or cells: HEK293AD cells, MaxCyte bulk electroporation
The experiment in a line: Primary cellular assay: γ3 associated phospho-Thr172 AMPK detection (custom pAMPK Surefire AlphaLISA) in α2β2γ3 bulk transiently transfected HEK293 cells. It counts as cell-based. The conditions noted are these: activation of human AMPK α2β2γ3 (γ3 pThr172 AMPK signal) in transiently transfected HEK293 cells, 20 minutes compound incubation; for Emax: 20 min, geometric mean of the asymptotic max, read-out: Assay GMean Asy. Max (%); for EC50: geometric mean EC50, read-out: Assay GMean EC50. As for the experimental part: Primary Cellular Assay—γ3 Associated Phospho-Thr172 AMPK Detection in α2β2γ3 Bulk Transiently Transfected HEK293 Cells
The cellular potencies of the compounds were evaluated using a custom pAMPK Surefire AlphaLISA designed to assess γ3 associated phospho-Thr172 AMPK and modulation by small molecules in AMPK α2β2γ3 transiently transfected HEK293 cells.
A pAMPK Surefire AlphaLISA (PE-ASLU-PAMPK) assay available through Perkin Elmer was modified to selectively assess γ3 pThr172 AMPK content (as opposed to total pThr172 AMPK) by labeling a γ3 antibody with a CaptSure™ tag and substituting it for the total α1c/α2 AMPK labeled antibodies in the kit. In the modified assay, the overall abundance of γ3 AMPK is recognized by the CaptSure γ3 antibody and the phosphorylated AMPK is recognized by biotinylated pThr172 antibody. Subsequent reactivity with streptavitin donor beads and anti CaptSure conjugated acceptor beads brings the molecules into close proximity. Upon excitation at 680 nm, the donor bead converts ambient oxygen to a more excited singlet state which reacts with the acceptor bead and emits light at 520 to 620 nm. The intensity of the signal is proportional to the level of γ3 associated pThr172 AMPK phosphorylation.
In short, AMPK-α2+β2+γ3 MaxCyte bulk-transfected HEK293AD cells were thawed in growth media (DMEM High glucose+10% FBS) in a collagen-coated T150 flask and the cells were allowed to adhere and grow overnight in a 37° C. incubator. The following day, the cells were harvested and resuspended in plating medium (DMEM Low glucose+10% FBS) at a concentration of 100,000 cells per mL and 50 μL of this cell suspension was added to all wells of a 384-well plate using a Multidrop Combi. The cells were allowed to adhere and grow for 2 days in a 37° C. incubator. On assay day, compounds were diluted in 100% dimethyl sulfoxide (DMSO) in a 11 dose, half log dilution scheme and spotted in the cell plates at 1000× the final concentration. Compound incubations were performed in plating media for 20 minutes. Cells were washed with PBS, lysed and the signal was generated by subsequent additions of RB1 reagent from the kit, 1:1000 CaptSure γ3 labeled antibody in 1× immunoassay buffer, Anti-CaptSure acceptor beads and Streptavitin donor beads at final concentration of […]. The γ3 pThr172 AMPK signal was developed using EnVision™ multilabel reader (Perkin Elmer) using Alphascreen settings. The fluorescence emission was used to calculate the % effect relative to the HPE (30 μM) and ZPE (DMSO). EC50 curves were generated with the ActivityBase software using the XLfit model 205 to determine EC50 and Emax values.
For screening purposes, bulk AMPK-α2+β2+γ3 MaxCyte bulk transfection into HEK293AD cells were generated to support SAR screening as follows.
HEK293AD cells were seeded into 10 flasks at 2.7×10^7 cells per flask. The following day 12 mL of Trypl E dissociation reagent were added to each flask to lift the cells and the cells were then spun at 300×g for 5 minutes. Cells were washed once in MaxCyte EP buffer and then resuspended in MaxCyte EP buffer at 1×10^8 cells per mL. For transfection, 500×10^6 cells in 500 μl MaxCyte EP buffer were placed in a CL1.1 Processing Assembly (electroporation cell) with 1 mg/mL ([…]) of each of the plasmids pcDNA3.1(+)-human AMPK alpha 2, pcDNA3.1(+)-human AMPK beta 2 and pcDNA3.1(+)-human AMPK gamma 3 and the electroporation was carried out on the MaxCyte STX using the HEK293 electroporation protocol. Following electroporation, cells were transferred to a T175 flask containing growth medium (DMEM High glucose+10% FBS) and allowed to recover for 25 minutes, then the cells were resuspended to final volume of 900 mL and distributed into 6XT175 flasks and allowed to adhere and grow overnight in a 37° C. incubator. […]
For orientation: Alpha assays give light when donor and acceptor beads are brought close together.

T1 sequence (P54646 whole entry): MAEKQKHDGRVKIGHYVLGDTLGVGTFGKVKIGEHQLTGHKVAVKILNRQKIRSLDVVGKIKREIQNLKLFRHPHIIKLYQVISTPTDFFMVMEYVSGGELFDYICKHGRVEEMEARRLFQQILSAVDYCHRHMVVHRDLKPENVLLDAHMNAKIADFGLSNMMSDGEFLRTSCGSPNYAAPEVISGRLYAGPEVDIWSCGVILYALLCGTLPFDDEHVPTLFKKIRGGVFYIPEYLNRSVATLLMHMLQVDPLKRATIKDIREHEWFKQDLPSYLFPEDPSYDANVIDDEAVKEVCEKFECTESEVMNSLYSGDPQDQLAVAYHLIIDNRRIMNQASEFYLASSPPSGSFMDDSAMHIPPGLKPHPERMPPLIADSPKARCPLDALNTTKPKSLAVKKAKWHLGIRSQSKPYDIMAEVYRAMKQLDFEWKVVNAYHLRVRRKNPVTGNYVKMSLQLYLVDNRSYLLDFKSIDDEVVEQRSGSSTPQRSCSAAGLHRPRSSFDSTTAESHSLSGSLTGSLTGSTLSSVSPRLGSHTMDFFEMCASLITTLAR
T1 sequence (O43741 whole entry): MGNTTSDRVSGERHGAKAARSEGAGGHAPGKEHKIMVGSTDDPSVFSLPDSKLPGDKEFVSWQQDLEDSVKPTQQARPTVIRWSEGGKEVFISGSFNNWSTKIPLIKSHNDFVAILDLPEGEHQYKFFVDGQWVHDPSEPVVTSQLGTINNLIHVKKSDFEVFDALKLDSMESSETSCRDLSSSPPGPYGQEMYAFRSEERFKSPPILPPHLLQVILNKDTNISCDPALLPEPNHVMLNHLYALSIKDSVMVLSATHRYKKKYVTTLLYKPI
T1 sequence (Q9UGI9 whole entry): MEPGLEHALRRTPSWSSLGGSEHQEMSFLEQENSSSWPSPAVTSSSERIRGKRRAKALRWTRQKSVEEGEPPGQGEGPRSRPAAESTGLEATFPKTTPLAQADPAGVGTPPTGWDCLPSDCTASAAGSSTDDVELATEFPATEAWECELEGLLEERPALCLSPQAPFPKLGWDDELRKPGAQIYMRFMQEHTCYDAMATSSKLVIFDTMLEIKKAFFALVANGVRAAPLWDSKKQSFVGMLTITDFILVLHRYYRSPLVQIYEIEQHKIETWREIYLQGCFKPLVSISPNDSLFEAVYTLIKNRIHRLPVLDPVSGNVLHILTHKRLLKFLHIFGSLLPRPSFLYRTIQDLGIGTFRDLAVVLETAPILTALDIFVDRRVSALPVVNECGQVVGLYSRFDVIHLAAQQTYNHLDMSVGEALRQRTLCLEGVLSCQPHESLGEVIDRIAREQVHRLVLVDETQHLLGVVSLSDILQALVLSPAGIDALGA

On to `C[C@]1(c2cccc(Cl)c2F)CN(c2cc(F)c(CN)cc2F)C(=O)c2cnc(NC3CN(C(=O)[C@@H]4C[C@@H]4F)C3)c(F)c21` [Example 14, (4R)-2-[4-(aminomethyl)-2,5-difluorophenyl]-4-(3-chloro-2-fluorophenyl)-5-fluoro-6-({1-[(1S,2S)-2-fluorocyclopropane-1-carbonyl]azetidin-3-yl}amino)-4-methyl-3,4-dihydro-2,7-naphthyridin-1(2H)-one], for which the Emax amounted to 69.4% and the EC50 is 33.7 nM.
For `COCCN(C(=O)CN1CC(Nc2ncc3c(c2F)[C@@](C)(c2cccc(Cl)c2F)CN(c2nn(C)cc2F)C3=O)C1)C1CC1` [compound 75, 2-(3-{[(5R)-5-(3-chloro-2-fluorophenyl)-4-fluoro-7-(4-fluoro-1-methyl-1H-pyrazol-3-yl)-5-methyl-8-oxo-5,6,7,8-tetrahydro-2,7-naphthyridin-3-yl]amino}azetidin-1-yl)-N-cyclopropyl-N-(2-methoxyethyl)acetamide], in that order: 134% and 52.1 nM.
For `CC1(c2cccc(Cl)c2F)CN(c2ccc(N)cn2)C(=O)c2cnc(NC3CN(C(=O)[C@@H]4C[C@@H]4F)C3)nc21` (single isomer, unassigned) [Example 31] the same measures were 110% and 221 nM.
For `Cn1cc(F)c(N2C[C@](C)(c3cccc(Cl)c3F)c3c(cnc(NC4CN(C(=O)[C@H]5C[C@H]5F)C4)c3F)C2=O)n1` [compound 99, (4R)-4-(3-chloro-2-fluorophenyl)-5-fluoro-6-({1-[(1R,2R)-2-fluorocyclopropane-1-carbonyl]azetidin-3-yl}amino)-2-(4-fluoro-1-methyl-1H-pyrazol-3-yl)-4-methyl-3,4-dihydro-2,7-naphthyridin-1(2H)-one] the same measures were 49.7% and 70.2 nM.
For `CN1CCC(C(=O)N2CC[C@@H](Nc3ncc4c(c3F)C(C)(c3cccc(Cl)c3F)CN(c3ncccc3F)C4=O)C2)CC1` (single isomer, unassigned) [Example 24], the Emax was determined as 139% and the concentration giving a half-maximal response (EC50) worked out at 79.5 nM.
For `Cn1cc(F)c(N2C[C@](C)(c3cccc(Cl)c3F)c3c(cnc(NC4CN(C(=O)C5(O)CCC5)C4)c3F)C2=O)n1` [Example 7, (4R)-4-(3-Chloro-2-fluorophenyl)-5-fluoro-2-(4-fluoro-1-methyl-1H-pyrazol-3-yl)-6-{[1-(1-hydroxycyclobutane-1-carbonyl)azetidin-3-yl]amino}-4-methyl-3,4-dihydro-2,7-naphthyridin-1(2H)-one] the same measures were 123% and 144 nM.
For `CN(C)C(=O)CN1CCC(Nc2ncc3c(c2F)C(C)(c2cccc(Cl)c2F)CN(c2nn(C)cc2F)C3=O)C1` [compound 110, 2-[(3R)-3-{[5-(3-chloro-2-fluorophenyl)-4-fluoro-7-(4-fluoro-1-methyl-1H-pyrazol-3-yl)-5-methyl-8-oxo-5,6,7,8-tetrahydro-2,7-naphthyridin-3-yl]amino}pyrrolidin-1-yl]-N,N-dimethylacetamide, from P9 (DIAST-2)], in that order: 63.2% and 266 nM.
With `C[C@@H](O)c1ccc(N2C[C@](C)(c3cccc(Cl)c3F)c3c(cnc(NC4CN(C(=O)[C@@H]5C[C@@H]5F)C4)c3F)C2=O)nc1` [Example 18, (4R)-4-(3-Chloro-2-fluorophenyl)-5-fluoro-6-({1-[(1S,2S)-2-fluorocyclopropane-1-carbonyl]azetidin-3-yl}amino)-2-{5-[(1R)-1-hydroxyethyl]pyridin-2-yl}-4-methyl-3,4-dihydro-2,7-naphthyridin-1(2H)-one], the Emax was 79.2% and the EC50 stood at 165 nM.
For `C[C@]1(c2cccc(Cl)c2F)CN(c2ccccn2)C(=O)c2cnc(NC3CN(C(=O)[C@@H]4C[C@@H]4F)C3)c(F)c21` [Example 5, (4R)-4-(3-chloro-2-fluorophenyl)-5-fluoro-6-({1-[(1S,2S)-2-fluorocyclopropane-1-carbonyl]azetidin-3-yl}amino)-4-methyl-2-(pyridin-2-yl)-3,4-dihydro-2,7-naphthyridin-1(2H)-one], in that order: 64.9% and 27.7 nM.

Broadly, the EC50 is the concentration giving half of the maximal effect.

The record behind these values is patent US12637461B2, “Compounds for the activation of AMPK” (PFIZER INC., priority 2022, dated 2026).
